Source: patent US20250025454A1 (priority 2021, published 2025)

How the values were obtained:
[1] = test system: SARS-CoV-2; conditions: 35 compounds tested
[2] = in vitro; conditions: human, EC50, compound toxicity in the context of infection, total cell numbers per well; average±sem of 5 independent experiments
[3] = test system: SARS-CoV-2; assay: microbe, parasite or virus in culture; conditions: Severe acute respiratory syndrome coronavirus 2, HeLa-ACE2, 24 h
[4] = test system: SARS-CoV-2/WA1; format: cell-based; conditions: Severe acute respiratory syndrome coronavirus 2, HeLa-ACE2

Row | SMILES | activity in the HeLa-ACE2 cell-based SARS-CoV-2 assay [1] | EC50 [2] [nM] | EC50 [3] [nM] | IC50 [4] [nM]
1 | COc1cc(Cl)cc(C(C)Nc2cc(N3CCNCC3)ccc2S(C)(=O)=O)c1OC.Cl (stereo not shown) [PRX-07034] | demonstrated activity |  |  | 
2 | COc1ccc(C[C@H](N)C(=O)N[C@H]2[C@@H](O)[C@H](n3cnc4c(N(C)C)ncnc43)O[C@@H]2CO)cc1 [puromycin] |  | 547 ± 27 |  | 
3 | Cc1c2c(nn1C)CSCc1cc(n(C)n1)CSc1cc(c3ccccc3c1)OCCCc1c(C(=O)O)n(C)c3c-2c(Cl)ccc13 [AZD-5991] | demonstrated activity |  |  | 
4 | CNCc1ccc(-c2cc(-c3nc(-c4ccc(S(=O)(=O)C(C)C)cc4)cnc3N)on2)cc1 [berzosertib, reference compound] | demonstrated activity |  | 114 | 110
5 | Nc1ncnc2c1nc(Cl)n2[C@@H]1O[C@@H]2COP(=O)(O)O[C@H]2[C@H]1O [tocladesine] | demonstrated activity |  |  | 
